Results on one substance are retold here after US20160015803A1, “IMMUNOSTIMULATORY COMBINATIONS AND USE THEREOF” (priority 2014, published 2016).

The test relates to markers of innate activation. Put plainly: in vivo activity, markers of innate activation after IV injection. Particulars: Rhesus; 24-72 hours after IV injection. An excerpt:
Based on these findings in mice we explored the potential for the use of polyIC-LC/αCD40 combination vaccination in non-human primates (NHP) in order to validate the clinical efficacy. Human anti-human CD40 (Kirin Pharmaceuticals) having the variable heavy and light sequences in the Sequence Listing were produced in cell culture. CD40 binding activity and agonistic activity was confirmed against both human and Rhesus Macaque PBMCs. In vivo activity in Rhesus was also confirmed by examining markers of innate activation 24-72 hours after IV antibody injection. PolyIC-LC was obtained from Oncovir Inc. and its activity was confirmed in vivo similar to the αCD40.

For PolyIC-LC, the “In vivo activity (markers of innate activation)” value is reported as “confirmed”.
